In ChEMBL document CHEMBL1128704, “(R)-11-hydroxy- and (R)-11-hydroxy-10-methylaporphine: synthesis, pharmacology, and modeling of D2A and 5-HT1A receptor interactions” (J Med Chem, 1995) one finds EC50, inhibition and Ki data, which are given here for two molecules.

SMILES strings stand for the structures.

The target in experiment [1] is T1, 5-hydroxytryptamine receptor 1A (Rattus norvegicus, UniProt P19327).
T1 sequence (P19327 whole entry): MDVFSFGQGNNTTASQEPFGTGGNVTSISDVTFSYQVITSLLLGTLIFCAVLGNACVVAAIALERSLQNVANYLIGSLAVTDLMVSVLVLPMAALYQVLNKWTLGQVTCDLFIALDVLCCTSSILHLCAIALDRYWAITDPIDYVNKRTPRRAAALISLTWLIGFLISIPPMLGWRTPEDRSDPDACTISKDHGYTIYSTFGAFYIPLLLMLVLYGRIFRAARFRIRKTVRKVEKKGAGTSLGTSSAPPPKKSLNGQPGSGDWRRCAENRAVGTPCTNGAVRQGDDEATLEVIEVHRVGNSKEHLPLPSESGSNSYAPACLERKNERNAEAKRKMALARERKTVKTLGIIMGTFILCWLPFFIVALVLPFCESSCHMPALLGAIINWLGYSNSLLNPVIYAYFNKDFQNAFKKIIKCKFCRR
In words: (§1) Ability to inhibit 5-HT sensitive,forskolin-stimulated adenylyl cyclase(FSC) activity in rat hippocampal membranes mediated through 5-hydroxytryptamine 1A receptor. The experiment is classed as functional, cell membranes.

For experiment [2], the target named is T2, 5-hydroxytryptamine receptor 1A (Rattus norvegicus) (UniProt P19327).
T2 sequence (whole entry): T1 sequence (P19327 whole entry)
The description is as §1. The class given is functional, cell membranes. Conditions: concentration not given here.

The target of experiment [3] is T1, 5-hydroxytryptamine receptor 1A. In words: Ability to displace [3H]8-OH-DPAT binding to rat hippocampal 5-hydroxytryptamine 1A receptor. The class given is tissue-based, Hippocampus.
Experiment [4] has as its target D(2) dopamine receptor (Homo sapiens, UniProt P14416). In words: Ability to displace [3H]raclopride binding to cloned human Dopamine receptor D2A.
Experiment [5] concerns the target D(1A) dopamine receptor (Rattus norvegicus, UniProt P18901). In words: Ability to displace [3H]SCH-23390 binding to rat striatal Dopamine receptor D1.

Chain of D(2) dopamine receptor (P14416 whole entry): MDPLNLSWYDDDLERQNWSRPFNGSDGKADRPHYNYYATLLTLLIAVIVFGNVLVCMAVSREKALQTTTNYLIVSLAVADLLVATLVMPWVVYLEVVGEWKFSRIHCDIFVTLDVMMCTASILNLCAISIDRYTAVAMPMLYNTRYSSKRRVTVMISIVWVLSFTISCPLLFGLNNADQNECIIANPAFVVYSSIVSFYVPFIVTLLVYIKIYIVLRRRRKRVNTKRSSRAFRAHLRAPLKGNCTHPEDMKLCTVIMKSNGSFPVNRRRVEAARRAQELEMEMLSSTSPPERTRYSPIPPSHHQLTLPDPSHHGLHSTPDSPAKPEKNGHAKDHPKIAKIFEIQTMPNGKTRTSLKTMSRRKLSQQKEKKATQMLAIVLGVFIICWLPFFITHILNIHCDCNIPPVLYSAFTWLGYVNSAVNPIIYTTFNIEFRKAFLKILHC
Chain of D(1A) dopamine receptor (P18901 whole entry): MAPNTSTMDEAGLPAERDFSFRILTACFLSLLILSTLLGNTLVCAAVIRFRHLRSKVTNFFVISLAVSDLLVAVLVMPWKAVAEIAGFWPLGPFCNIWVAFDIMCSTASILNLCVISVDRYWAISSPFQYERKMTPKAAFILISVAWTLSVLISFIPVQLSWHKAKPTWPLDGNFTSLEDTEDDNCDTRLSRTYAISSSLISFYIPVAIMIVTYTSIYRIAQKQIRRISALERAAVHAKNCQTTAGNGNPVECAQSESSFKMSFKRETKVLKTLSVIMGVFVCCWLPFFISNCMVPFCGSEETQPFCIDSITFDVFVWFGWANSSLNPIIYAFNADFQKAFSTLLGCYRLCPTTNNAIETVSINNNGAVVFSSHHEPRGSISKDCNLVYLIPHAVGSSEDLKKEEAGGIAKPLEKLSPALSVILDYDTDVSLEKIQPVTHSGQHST

As usually defined, the EC50 is the concentration needed to bring the measured effect to its halfway point. As usually defined, the inhibition is the change of the read-out against control, counted positive when it falls. A word on the Ki: it is the equilibrium dissociation constant of an inhibitor or competing ligand from its target. A low value points to tighter binding. In experiment [1], `CN1CCc2cccc3c2[C@H]1Cc1cccc(O)c1-3` yielded an EC50 of 5200 nM. Moreover, in experiment [2], the inhibition is 60%. Also, the Ki amounted to 9.6 nM in experiment [3], 58.5 nM in experiment [4] and 20.4 nM in experiment [5].
On the same counts, the results for `Cc1ccc2c(c1O)-c1cccc3c1[C@@H](C2)N(C)CC3` are 55 nM, 102%, 0.45 nM, 1070 nM and 382 nM.
